Source: US11000581B2, “Engineering gut commensal bacteria to express heterologous proteins in their outer membrane vesicles (OMVs) for delivery to the GI-tract” (QUADRAM INSTITUTE BIOSCIENCE, priority 2016, dated 2021)
Values after ≈ are worked out from the molar mass of the structure shown. Read-outs that look alike come from different tables or passages of the source.

Tests used:
GH361 [1] = assay: Mannan-induced BtCepA expression in the mouse gut (ceftriaxone challenge, fecal CFU); format: in vivo, mice
Description: FIG. 4. In vivo induction of ceftriaxone resistance using exogenous α-mannan. Crosses indicate times of i.p. injections. GA: Group A of mice received mannan in their drinking water. GB: Group B of mice which were given access to regular drinking water. CRO: ceftriaxome.
“α-mannan is a fungal cell wall glycan that contains α-mannosidic linkages similar to those found in the core regions of N-linked glycans present on secreted mucus and epithelial surfaces” (Martens et al., 2011). However, expression levels of the PUL genes involved in mannan utilization in mice fed a diet lacking exogenous α-mannan were only partial when compared to other PULs showing high activity in vivo (Martens et al., 2008). The effectiveness of the mannan induced system was tested in vivo in seven-week-old male C57BL/6J WT mice with established B. thetaiotaomicron within the intestine, housed in a conventional animal facility after treating for 3 days with 1 mg/ml ampicillin and 1 mg/ml neomycin administered via drinking water. To achieve this, the strain GH361 containing the BtCepA gene controlled by the inducible low expression system (Table 1) was administered by oral gavage (1×10^8 colony-forming units (CFU) in 100 μl of phosphate buffered saline) to two groups of 4 mice. One of the groups (Group A) were given drinking water with containing 2.5% (v/v) mannan-oligosaccharide supplement (ActiveMOS, Orffa, Werkendam, The Netherlands) prepared treating the powder (10% w/v) with 1% NaOH at 100° C. for 1 h, cooling and neutralizing to pH7 with dilute HCl solution (Huang et al., 2010). […] Both groups of mice were challenged every other day via i.p. injection with ceftriaxone (0.4 mg/mice), a third-generation cephalosporin that is excreted via the biliary route and affects the colonic microbiota (Arvidsson et al., 1982). The MICs of ceftriaxone determined for GH361 were 8 mg/L when cells were grown in the absence of mannan and 64 mg/L when mannan was added to the growth medium. […]

GH361 [2] = assay: MIC of ceftriaxone for GH361; format: cell-based, B. thetaiotaomicron; details: Bacteroides thetaiotaomicron
Method: “α-mannan is a fungal cell wall glycan that contains α-mannosidic linkages similar to those found in the core regions of N-linked glycans present on secreted mucus and epithelial surfaces” (Martens et al., 2011). However, expression levels of the PUL genes involved in mannan utilization in mice fed a diet lacking exogenous α-mannan were only partial when compared to other PULs showing high activity in vivo (Martens et al., 2008). The effectiveness of the mannan induced system was tested in vivo in seven-week-old male C57BL/6J WT mice with established B. thetaiotaomicron within the intestine, housed in a conventional animal facility after treating for 3 days with 1 mg/ml ampicillin and 1 mg/ml neomycin administered via drinking water. To achieve this, the strain GH361 containing the BtCepA gene controlled by the inducible low expression system (Table 1) was administered by oral gavage (1×10^8 colony-forming units (CFU) in 100 μl of phosphate buffered saline) to two groups of 4 mice. […] The MICs of ceftriaxone determined for GH361 were 8 mg/L when cells were grown in the absence of mannan and 64 mg/L when mannan was added to the growth medium. […]

B. thetaiotaomicron = assay: Minimum inhibitory concentration of ampicillin for variant strains with or without mannan; format: cell-based; details: Bacteroides thetaiotaomicron, read-out: minimum inhibitory concentration (MIC) of ampicillin
Description: Since optimization of this novel gene expression system was based upon the use of a heterologous reporter gene, the system was validated by determining if it can be used to study B. thetaiotaomicron genes. For this purpose, the complementation of a deletion mutant of BtcepA (Stentz et al., 2015), a cephalosporinase gene involved in the resistance of bacterial cells to β-lactam antibiotics, was undertaken. The primer pair Lactamase_F and Lactamase_EcoRI_R was used to amplify an 885-bp region from B. thetaiotaomicron VPI-5482 genomic DNA encoding BtcepA. […] The β-lactamase activity was measured after 2 h of induction with increasing concentrations of mannan (Table 4). […] Periplasmic proteins were prepared as described by Stentz et al. (Stentz et al., 2015). β-lactamase activity was assessed spectrophotometrically by hydrolysis of nitrocefin according to the manufacturer's instructions (Calbiochem). […] The basal level measured for the low expression system was negligible since it represented only 2.7% of the activity measured for the wild-type control strain. To establish how these measured activities translate into resistance to β-lactam antibiotics the minimum inhibitory concentration (MIC) of the β-lactam antibiotic ampicillin was determined for each variant strain grown in the presence or absence of mannan.

Row | Structure (SMILES) | effect on GH361 population levels (GH361 [1]; ceftriaxone increased to 0.8 mg, both groups) | effect on levels of GH361 (CFU in fecal samples) (GH361 [1]; group A given mannan in drinking water, three successive i.p. doses 0.4 mg/mice) | decrease of levels of GH361 (CFU in fecal samples) (GH361 [1]; group B not given mannan, three successive i.p. doses 0.4 mg/mice) | MIC (GH361 [2]; read-out: MIC of ceftriaxone, GH361, mannan added to the growth medium) [µg/mL] | MIC (GH361 [2]; read-out: MIC of ceftriaxone, GH361 grown in the absence of mannan) [µg/mL] | MIC (B. thetaiotaomicron) [µg/mL]
1 | CO/N=C(\C(=O)N[C@@H]1C(=O)N2C(C(=O)O)=C(CSc3nc(=O)c(=O)[nH]n3C)CS[C@H]12)c1csc(N)n1 [ceftriaxone] | decreased significantly | no effect | approximately 15 fold | 64 | 8 | 
2 | CC1(C)S[C@@H]2[C@H](NC(=O)[C@H](N)c3ccccc3)C(=O)N2[C@H]1C(=O)O [ampicillin] |  |  |  |  |  | 4 to 2050 (≈ 11.4 to 5860 µM)
